Patent US20160235677A1, “METHOD OF CONVERTING A CRYSTALLINE COMPOUND TO AN AMORPHOUS COMPOUND, METHOD OF INCREASING THE SOLUBILITY OF A CRYSTALLINE COMPOUND IN A BIORELEVANT FLUID, AND NANOPARTICLES THAT ACHIEVE SUPERSATURATION” (Nanocopoeia, LLC., priority 2014, published 2016)
In brackets after ≈: the same amount, converted by molar mass. Where a name gives a salt, the structure may show the parent alone. Read-outs that look alike come from different tables or passages of the source.

Tests used:
[1] = XRD and DSC determinations of physical state of ENS-processed powders (Table B); format: physicochemical
Protocol: Thermal analysis is conducted using a TA Instruments Model Q200 DSC (New Castle, Del.) equipped with an RCS-90 refrigerated cooling system. Samples, in an amount of 3.5 mg±1.0 mg, are weighed into TA Instruments T-Zero aluminum pans and closed with lids. […] Nitrogen is used as the purge gas at a flow rate of 50 mL/min. All data analyses are performed using TA Universal Analysis 2000 software (TA Instruments, New Castle, Del.). T-Zero cell constant and temperature/enthalpy calibrations are conducted with the use of sapphire and indium standards, respectively.
X-ray powder diffraction is performed at room temperature using a Bruker D8 Discover using a Cu Kα radiation, point source filtered with a graphite monochromator and a Bruker Hi-Star two-dimensional x-ray detector (Bruker, Karlsruhe, Germany). Powder samples are pressed onto a sample holder made of single-crystal quartz cut off-axis. The reflected intensity is collected at 0.04° resolution from 2Θ=2° to 62° with an acquisition time of 20 minutes. Data analysis is performed using the JADE 8.0 software package (Materials Data Inc., Livermore, Calif.) with whole pattern fitting. The test method has a detection limit of 2% crystallinity.
A series of crystalline drug and polymer combinations were dissolved in solvents in the amounts and at the ratios set forth in Table B. The solutions were then sprayed using the ENS system described above. The resulting dry compounds were collected and analyzed according to the XRD, DSC and SEM test methods.

[2] = Equilibrium / saturation solubility in test media; format: physicochemical; settings: ITZ, experimentally determined
[3] = oral, taken immediately after a full meal or with an acidic beverage; cited from earlier work
[4] = Dissolution in Biorelevant Media with pH Transition (itraconazole, FaSSGF to FaSSIF); format: physicochemical
Protocol: (§1) Dissolution testing, based on pH change from acidic-to-neutral media, is performed according to USP 29 Apparatus 2 Guidelines (United States Pharmacopeial Convention. Chapter <711> Dissolution, Stage 6 Harmonization, Official Dec. 1, 2011. USP website: http://www.usp.org/sites/default/files/usp_pdf/EN/USPNF/2011-02-25711DISSOLUTION.pdf).
Where specified below, the USP method was modified to use smaller 100 mL glass vessels with matching sized paddles operated at a […] speed of 100 rpm in biorelevant media using a VanKel 7000 Dissolution Tester (VanKel Technology Group, Gary, N.C.).
Biorelevant media is prepared using FaSSIF, FeSSIF & FaSSGF Powder (biorelevant.com) a commercial source of sodium taurocholate and lecithin, hereafter abbreviated “SIF Powder.” Fasted state simulated gastric fluid (FaSSGF) and Fasted state simulated intestinal fluid (FaSSIF) are prepared using the formula provided by the vendor at http://biorelevant.com/fassif-fessif-fassgf-dissolution-media/fasted-fed-state-simulated-intestinal-gastric-fluid/how-to-make/, after specifying the desired volume quantity of medium to be prepared. For example, for 500 mL of FaSSGF, the test medium contains sodium chloride, 1 g, and SIF Powder, 30 mg. Solids are dissolved in approximately 480 mL deionized water. The FaSSGF solution is adjusted to a final pH of 1.6 using concentrated hydrochloric acid, and brought to a final volume of 500 mL by adding deionized water.
For two-stage dissolution testing, which consists of a gastric stage followed by an intestinal phase, the compound of interest is first added to a volume of FaSSGF that is equivalent to ¾ of the final test volume. For example, if the test vessel is 100 mL, the volume of FaSSGF is 75 mL. After allowing dissolution to proceed for 2 hours or another specified time interval, 25 mL of a Transition Medium is added to create a final volume of 100 mL in this example, with a final pH of 6.5. The final medium is equivalent in composition to FaSSIF, as per the formula provided at the above link at biorelevant.com.
The Transition Medium is prepared first by making Transition Buffer, 500 mL, which contains sodium chloride, 9.37 g, sodium hydroxide, 2.5 g, sodium phosphate monobasic dihydrate, 8.94 g. […] Larger quantities are prepared as required, maintaining the relative amounts each of Transition Buffer and SIF Powder.
The dissolution test is performed by weighing the test formulation containing the test compound, adjusting weights to achieve an equivalent amount of test compound across the various test formulations. […] Starting time for the dissolution test is recorded with the addition of the first drop. […]

[5] = itraconazole, cited from earlier work
[6] = itraconazole; cited from earlier work
[7] = itraconazole, assumed value; cited from earlier work
[8] = Dissolution in Buffer Media with pH Transition (itraconazole); format: physicochemical
Protocol: as §1
Where specified below, the USP method was modified to use smaller 100 mL glass vessels with matching sized paddles operated at a speed of 100 rpm in buffer media using a VanKel 7000 Dissolution Tester (VanKel Technology Group, Gary, N.C.).
Examples A2, A3, A5 and A6 and Controls A1-A6 were tested according to the Dissolution in Buffer Media with pH Transition Test method. […] The solution was left stirring for 120 minutes, after which 3 mL aliquots were drawn from each vessel. Immediately after the aliquots were removed from the vessels, 25 mL of 0.2 M tribasic sodium phosphate buffer was added to each vessel to produce in a dissolution media having a pH 6.8±0.05. Subsequently, 3 mL aliquots were drawn from each vessel after 135 min, 150 min, 180 min, 210 min, 240 min, and 300 min. The aliquots were then analyzed to determine the concentration of itraconazole present in the media. The results were recorded in μg/mL.
Since only one sample was collected before the pH transition, the AUC, Tmax and Cmax were calculated based on the results following pH transition.

[9] = Differential Scanning Calorimetry (DSC) crystallinity / physical state; format: physicochemical; settings: griseofulvin formulations
Protocol: Controls and Examples were tested according to the DSC test method.

[10] = test system: Caco-2 monolayers; assay: Caco-2 Monolayer Test Method; format: in vitro ADME; settings: Caco-2, FIGS. 8A and 8B, result in words
Protocol: Caco-2 monolayers are prepared in Millipore 96-cell Caco-2 plates and are used after a 3-week differentiation period. The monolayers separate the apical, or donor well, from the basolateral, or recipient well. The buffer used for the apical side is 1.98 g/L glucose in 10 mM HEPES, Hank's Balanced Salt Solution (HBSS) lx, with calcium, magnesium, without phenol red (HyClone, Logan, Utah) pH 7.4. The impermeable dye Lucifer yellow (in an amount of 100 μM) is added to test monolayer integrity. The basolateral side buffer is buffer, pH 7.4, without dye. […] The amount of test powder is selected to assure that if the powder was completely dissolved, the amount is sufficient to achieve ˜12 to 13 times the saturation concentration of the compound of interest previously measured in HBSS (15 μg/mL), in other words, a supersaturated solution. […] Where the compound of interest is not a substrate for p-glycoprotein (pGP), B→A efflux is not measured.
Buffer test samples are added to apical wells at 1 h after preparation and buffer alone is added to the basolateral side. […] The plates are assumed to be intact if there is no increase in fluorescence from leaking Lucifer yellow dye from the apical side. Individual cell monolayers are assumed intact if there is no increase in fluorescence in aliquots taken from the basolateral wells. […]

[11] = after pH transition to FaSSIF pH 6.5±0.05

SMILES: C[C@@H](O[C@H]1OCCN(Cc2n[nH]c(=O)[nH]2)[C@H]1c1ccc(F)cc1)c1cc(C(F)(F)F)cc(C(F)(F)F)c1 [Aprepitant]
- XRD and DSC determinations of physical state (amorphous or crystalline) [1]: mainly amorphous material.

SMILES: CN1CC2c3ccccc3Oc3ccc(Cl)cc3C2C1 (stereo not drawn) [Asenapine Maleate]
- XRD and DSC determinations of physical state (amorphous or crystalline) [1]: with largely amorphous material.

SMILES: CCC(C)n1ncn(-c2ccc(N3CCN(c4ccc(OCC5COC(Cn6cncn6)(c6ccc(Cl)cc6Cl)O5)cc4)CC3)cc2)c1=O (stereo not drawn) [Control A1, Itraconazole]
- solubility in FaSSIF medium [2]: 0.08 µg/mL (≈ 0.113 µM)
- maximum absorption [3]: 55%
- Neutral Phase AUC (SD) (μg · hr/mL) [4, 11]: 0.75 (0.221) μg · hr/mL
- Neutral Phase Cmax [4, 11]: 291 ng/mL
- Neutral Phase Tmax [4, 11]: 2.25 h
- Acid Phase C120 ([4]; itraconazole concentration at 120 minutes in 75 mL FaSSGF, 6 mg itraconazole equivalent): 0.112 µg/mL
- reported aqueous solubility ([5]; acidic media): 4 µg/mL
- reported aqueous solubility ([5]; neutral pH): 0.001 µg/mL
- log P [6]: 6.2
- pKa [6]: 3.7
- assumed solubility in 0.1 N HCl [7]: 4 µg/mL
- Neutral Phase Tmax ([8]; buffer, after pH transition to 6.8±0.05): 3.50 h
- Neutral Phase AUC (SD) (μg · hr/mL) ([8]; buffer, after pH transition to 6.8±0.05, up to 300 min): 0.218 (0.078) μg · hr/mL
- Neutral Phase Cmax ([8]; buffer, after pH transition to 6.8±0.05 with 0.2 M tribasic sodium phosphate): 61 ng/mL
- Acid Phase C120 ([8]; itraconazole concentration at 120 minutes in 75 mL 0.1 N HCl pH 1, 6 mg itraconazole equivalent): 1.50 µg/mL

SMILES: O=C(O)Cc1ccccc1Nc1c(Cl)cccc1Cl [Diclofenac]
- XRD and DSC determinations of physical state (amorphous or crystalline) [1]: XRD and DSC consistent with crystalline

SMILES: COC1=CC(=O)C[C@@H](C)[C@]12Oc1c(Cl)c(OC)cc(OC)c1C2=O [Control 3, griseofulvin]
- calculated levels of crystallinity based on DSC [9]: 100%
- initial concentration and flux compared with unprocessed GF powder [10]: performed similarly to unprocessed GF powder

SMILES: COc1ccc2c(c1)c(CC(=O)O)c(C)n2C(=O)c1ccc(Cl)cc1 [Indomethacin]
- XRD and DSC determinations of physical state (amorphous or crystalline) [1]: with mainly amorphous material.
